The values that follow are results of earlier work, collected in patent publication US20020132296A1, “Human Ste20-like stress activated serine/threonine kinase” (priority 1997, published 2002).

Structures are written as SMILES.

Data set [1] concerns LPS-stimulated macrophages.

As for `C[S+]([O-])c1ccc(-c2nc(-c3ccncc3)c(-c3ccc(F)cc3)[nH]2)cc1` (centres unmarked) [SB203580], the “production of TNF, IL-6 and IL-8” value in the data set on TNF-stimulated HUVECs is on record as “inhibit”. In addition, the “production of TNF and IL-1” value in data set [1] is “inhibit”.
